Reference: patent US7745619B2, “Vinca derivatives” (priority 2003, dated 2010)
Read-outs that look alike come from different tables or passages of the source.

What was measured:
[1] = system: HeLa S-3 cells; assay: HeLa GI50 determination (SRB growth inhibition); format: cell-based, human; conditions: Homo sapiens, HeLa S3, 48 h
Method: Growth inhibition (GI50) values were measured on the human cervical carcinoma cell line, HeLa S-3, which were selected for growth on plastic. The HeLa cell assay was based on the description of Skehan et al., J. Natl. Cancer Inst., 82:1107-12 (1990), which is hereby incorporated by reference in its entirety. HeLa cells were plated at 2×10^4 cells/well in 96 well plates. One day later, a control plate was fixed by the addition of TCA to 5%. After five rinses with tap water, the plate was air-dried and stored at 4° C. Test compounds were added to the remaining plates at 10-fold dilutions. Two days later, all plates were fixed as described above. Cells were then stained by the addition of 100 μL per well of 0.4% sulforhodamine B (SRB) in 1% acetic acid for 30 min at 4° C. Wells were then quickly rinsed 5× with 1% acetic acid and allowed to air dry. The SRB was then solubilized by the addition of 100 μL per well of unbuffered 10 mM Tris base. Dye was quantified by measuring absorbance at 490 nm on a Molecular Devices microplate reader. Growth inhibition was calculated according to the following equation: GI=100×(T−T0)/(C−T0), where the optical density (OD) of the test well after 2 days of treatment was T, the OD of the wells in the control plate on day 0 was T0 and C was the OD of untreated wells. Plots of percent growth inhibition versus inhibitor concentration were used to determine the GI50.

[2] = system: MCF-7 cells; assay: MCF-7 GI50 determination (crystal violet growth inhibition); format: cell-based, human; conditions: Homo sapiens, MCF7, 96 h
Method: Growth inhibition (GI50) values were measured on the human breast carcinoma line, MCF-7. MCF-7 cells were plated at 2×10^4 cells/well in 96 well plates and grown for 24 hours in drug free media. On day 2, test compounds were added to the plates at 10-fold dilutions. Four days later, cells were fixed by the addition of glutaraldehyde to 0.75%. After 30 min, the fixed cells were extensively rinsed with distilled water and dried at room temperature for one hour. The cells were then stained with a 0.2% crystal violet solution for one hour at room temperature. Unbound stain was removed by ten rinses with tap water and plates were allowed to air dry for 30 min. The crystal violet was then solubilized by the addition of 10% acetic acid for 15 min and quantified by measuring absorbance at 570 nm on a Molecular Devices microplate reader. Growth inhibition was calculated according to the following equation: GI=[…], where the optical density (OD) of the test well after 4 days of treatment was T, the OD of the wells in the control plate on day 0 was T0. Plots of percent growth inhibition versus inhibitor concentration were used to determine the GI50.

[3] = HeLa S-3 cells, 2 days of treatment, sulforhodamine B, read-out: HeLa Cells GI50
[4] = MCF-7 cells, 4 days of treatment, crystal violet, read-out: MCF-7 Cells GI50
[5] = read-out: MCF-7 Cells GI50 (nM)

CC[C@]1(O)C[C@H]2CN(CCc3c([nH]c4ccc(SSC)cc34)[C@@](C(=O)OC)(c3cc4c(cc3OC)N(C)[C@H]3[C@@](O)(C(=O)OC)[C@H](OC(C)=O)[C@]5(CC)C=CCN6CC[C@]43[C@@H]65)C2)C1 [Example 57, 12′-(methyldisulfanyl) vinblastine]
GI50 [1, 3]: 300 nM | GI50 [2, 4]: 300 nM

CCC1=C[C@H]2CN(CCc3c([nH]c4ccc(I)cc34)[C@@](C(=O)OC)(c3cc4c(cc3OC)N(C)[C@H]3[C@@](O)(C(=O)OC)[C@H](OC(C)=O)[C@]5(CC)C=CCN6CC[C@]43[C@@H]65)C2)C1 [Example 98, 12′-iodoanhydro vinblastine]
GI50 ([1]; read-out: HeLa Cells GI50 (nM)): 50 nM | GI50 [2, 5]: 305 nM

CC[C@]1(O)C[C@H]2CN(CCc3c([nH]c4cc(C)c(C)cc34)[C@@](C(=O)OC)(c3cc4c(cc3OC)N(C=O)[C@H]3[C@@](O)(C(=O)OC)[C@H](OC(C)=O)[C@]5(CC)C=CCN6CC[C@]43[C@@H]65)C2)C1 [Example 93, 12′,13′-dimethyl vincristine]
GI50 ([1]; read-out: HeLa Cells GI50 (nM)): 20 nM | GI50 [2, 5]: 30 nM

CC[C@]1(O)C[C@H]2CN(CCc3c([nH]c4ccc(CO)cc34)[C@@](C(=O)OC)(c3cc4c(cc3OC)N(C)[C@H]3[C@@](O)(C(=O)OC)[C@H](OC(C)=O)[C@]5(CC)C=CCN6CC[C@]43[C@@H]65)C2)C1 [Example 63, 12′-(hydroxymethyl) vinblastine]
GI50 [1, 3]: 40 nM | GI50 [2, 4]: 60 nM

CC[C@]1(O)C[C@H]2CN(CCc3c([nH]c4ccc(SSC(C)(C)C)cc34)[C@@](C(=O)OC)(c3cc4c(cc3OC)N(C)[C@H]3[C@@](O)(C(=O)OC)[C@H](OC(C)=O)[C@]5(CC)C=CCN6CC[C@]43[C@@H]65)C2)C1 [Example 59, 12′-(tert-butyldisulfanyl) vinblastine]
GI50 ([1]; read-out: HeLa Cells GI50 (nM)): 300 nM | GI50 [2, 5]: 300 nM

CC[C@]1(O)C[C@H]2CN(CCc3c([nH]c4ccc(SCC(=O)OC(C)(C)C)cc34)[C@@](C(=O)OC)(c3cc4c(cc3OC)N(C)[C@H]3[C@@](O)(C(=O)OC)[C@H](OC(C)=O)[C@]5(CC)C=CCN6CC[C@]43[C@@H]65)C2)C1 [Example 44, 12′-(tert-butoxycarbonylmethylsulfanyl) vinblastine]
GI50 ([1]; read-out: HeLa Cells GI50 (nM)): 70 nM | GI50 [2, 5]: 100 nM

C=Cc1ccc2[nH]c3c(c2c1)CCN1C[C@H](C[C@@](O)(CC)C1)C[C@]3(C(=O)OC)c1cc2c(cc1OC)N(C)[C@H]1[C@@](O)(C(=O)OC)[C@H](OC(C)=O)[C@]3(CC)C=CCN4CC[C@]21[C@@H]43 [Example 25, 12′-vinylvinblastine]
GI50 [1, 3]: 3 nM | GI50 [2, 4]: 9 nM

CC[C@]1(O)C[C@H]2CN(CCc3c([nH]c4ccc(SCc5ccccc5F)cc34)[C@@](C(=O)OC)(c3cc4c(cc3OC)N(C=O)[C@H]3[C@@](O)(C(=O)OC)[C@H](OC(C)=O)[C@]5(CC)C=CCN6CC[C@]43[C@@H]65)C2)C1 [Example 38]
GI50 ([1]; read-out: HeLa Cells GI50 (nM)): 100 nM | GI50 [2, 5]: 200 nM

CC[C@]1(O)C[C@H]2CN(CCc3c([nH]c4cc(I)c(C)cc34)[C@@](C(=O)OC)(c3cc4c(cc3OC)N(C=O)[C@H]3[C@@](O)(C(=O)OC)[C@H](OC(C)=O)[C@]5(CC)C=CCN6CC[C@]43[C@@H]65)C2)C1 [Example 92, 13′-iodo-12′-methyl vincristine]
GI50 ([1]; read-out: HeLa Cells GI50 (nM)): 30 nM | GI50 [2, 5]: 30 nM

CC[C@]1(O)C[C@H]2CN(CCc3c([nH]c4ccc(Sc5cccc(O)c5)cc34)[C@@](C(=O)OC)(c3cc4c(cc3OC)N(C=O)[C@H]3[C@@](O)(C(=O)OC)[C@H](OC(C)=O)[C@]5(CC)C=CCN6CC[C@]43[C@@H]65)C2)C1 [Example 54, 12′-(3-hydroxyphenylsulfanyl)vincristine]
GI50 ([1]; read-out: HeLa Cells GI50 (nM)): 100 nM | GI50 [2, 5]: 50 nM

CC[C@]1(O)C[C@H]2CN(CCc3c([nH]c4ccc(C(=O)OCC(Cl)(Cl)Cl)cc34)[C@@](C(=O)OC)(c3cc4c(cc3OC)N(C)[C@H]3[C@@](O)(C(=O)OC)[C@H](OC(C)=O)[C@]5(CC)C=CCN6CC[C@]43[C@@H]65)C2)C1 [Example 68, 12′-(2,2,2-trichloroethylcarbonyl)vinblastine]
GI50 ([1]; read-out: HeLa Cells GI50 (nM)): 30 nM | GI50 [2, 5]: 200 nM

CC[C@]1(O)C[C@H]2CN(CCc3c([nH]c4ccc(/C=C/C#N)cc34)[C@@](C(=O)OC)(c3cc4c(cc3OC)N(C)[C@H]3[C@@](O)(C(=O)OC)[C@H](OC(C)=O)[C@]5(CC)C=CCN6CC[C@]43[C@@H]65)C2)C1 [Example 30, 12′-(2-cyanovinyl) vinblastine]
GI50 ([1]; read-out: HeLa Cells GI50 (nM)): 65 nM | GI50 [2, 5]: 45 nM

CC[C@]1(O)C[C@H]2CN(CCc3c([nH]c4ccc(SCCO)cc34)[C@@](C(=O)OC)(c3cc4c(cc3OC)N(C)[C@H]3[C@@](O)(C(=O)OC)[C@H](OC(C)=O)[C@]5(CC)C=CCN6CC[C@]43[C@@H]65)C2)C1 [Example 35, 12′-(2-hydroxyethylsulfanyl)vinblastine]
GI50 [1, 3]: 200 nM | GI50 [2, 4]: 60 nM

CC[C@]1(O)C[C@H]2CN(CCc3c([nH]c4ccc(Nc5ccccc5)cc34)[C@@](C(=O)OC)(c3cc4c(cc3OC)N(C)[C@H]3[C@@](O)(C(=O)OC)[C@H](OC(C)=O)[C@]5(CC)C=CCN6CC[C@]43[C@@H]65)C2)C1 [Example 82, 12′-(phenylamino) vinblastine]
GI50 ([1]; read-out: HeLa Cells GI50 (nM)): 300 nM | GI50 [2, 5]: 600 nM

CC[C@]1(O)C[C@H]2CN(CCc3c([nH]c4ccc(C#N)cc34)[C@@](C(=O)OC)(c3cc4c(cc3OC)N(C=O)[C@H]3[C@@](O)(C(=O)OC)[C@H](OC(C)=O)[C@]5(CC)C=CCN6CC[C@]43[C@@H]65)C2)C1 [Example 66, 12′-cyanovincristine]
GI50 [1, 3]: 10 nM | GI50 [2, 4]: 4 nM

CC[C@]1(O)C[C@H]2CN(CCc3c([nH]c4ccc(-c5ccccc5)cc34)[C@@](C(=O)OC)(c3cc4c(cc3OC)N(C)[C@H]3[C@@](O)(C(=O)OC)[C@H](OC(C)=O)[C@]5(CC)C=CCN6CC[C@]43[C@@H]65)C2)C1 [Example 6, 12′-phenylvinblastine]
GI50 ([1]; read-out: HeLa Cells GI50 (nM)): 400 nM | GI50 [2, 5]: 300 nM

CCSc1ccc2[nH]c3c(c2c1)CCN1C[C@H](C[C@@](O)(CC)C1)C[C@]3(C(=O)OC)c1cc2c(cc1OC)N(C=O)[C@H]1[C@@](O)(C(=O)OC)[C@H](OC(C)=O)[C@]3(CC)C=CCN4CC[C@]21[C@@H]43 [Example 40, 12′-(ethylsulfanyl) vincristine]
GI50 [1, 3]: 6 nM | GI50 [2, 4]: 8 nM

CC[C@]1(O)C[C@H]2CN(CCc3c([nH]c4ccc(SCC(=O)O)cc34)[C@@](C(=O)OC)(c3cc4c(cc3OC)N(C)[C@H]3[C@@](O)(C(=O)OC)[C@H](OC(C)=O)[C@]5(CC)C=CCN6CC[C@]43[C@@H]65)C2)C1 [Example 45, 12′-(carboxymethylsulfanyl)vinblastine]
GI50 ([1]; read-out: HeLa Cells GI50 (nM)): 50 nM | GI50 [2, 5]: 200 nM

CCOC(=O)/C=C/c1ccc2[nH]c3c(c2c1)CCN1C[C@H](C[C@@](O)(CC)C1)C[C@]3(C(=O)OC)c1cc2c(cc1OC)N(C)[C@H]1[C@@](O)(C(=O)OC)[C@H](OC(C)=O)[C@]3(CC)C=CCN4CC[C@]21[C@@H]43 [Example 26, 12′-(2-ethoxycarbonylvinyl)vinblastine]
GI50 ([1]; read-out: HeLa Cells GI50 (nM)): 165 nM | GI50 [2, 5]: 70 nM

CC[C@]1(O)C[C@H]2CN(CCc3c([nH]c4ccc(SCCCO)cc34)[C@@](C(=O)OC)(c3cc4c(cc3OC)N(C)[C@H]3[C@@](O)(C(=O)OC)[C@H](OC(C)=O)[C@]5(CC)C=CCN6CC[C@]43[C@@H]65)C2)C1 [Example 33, 12′-(4-hydroxypropylsulfanyl)vinblastine]
GI50 [1, 3]: 20 nM | GI50 [2, 4]: 30 nM

CC[C@]1(O)C[C@H]2CN(CCc3c([nH]c4ccc(-c5ccc(OC)cc5)cc34)[C@@](C(=O)OC)(c3cc4c(cc3OC)N(C=O)[C@H]3[C@@](O)(C(=O)OC)[C@H](OC(C)=O)[C@]5(CC)C=CCN6CC[C@]43[C@@H]65)C2)C1 [Example 7, 12′-(4-methoxyphenyl) vincristine]
GI50 ([1]; read-out: HeLa Cells GI50 (nM)): 400 nM | GI50 [2, 5]: 100 nM

CC[C@]1(O)C[C@H]2CN(CCc3c([nH]c4ccc(SCCCCO)cc34)[C@@](C(=O)OC)(c3cc4c(cc3OC)N(C)[C@H]3[C@@](O)(C(=O)OC)[C@H](OC(C)=O)[C@]5(CC)C=CCN6CC[C@]43[C@@H]65)C2)C1 [Example 32, 12′-(4-hydroxybutylsulfanyl)vinblastine]
GI50 ([1]; read-out: HeLa Cells GI50 (nM)): 35 nM | GI50 [2, 5]: 30 nM
